In this assay the test system is LDL fraction. The assay is described as follows: Oxidation of LDL in vitro (Cu2+-initiated, conjugated diene absorbance at 234 nm, lag phase). The class given is biochemical, human. The following applies: for synergistic antioxidant properties in combination with TRF or purified δ-tocol: non-polyphenolic antioxidants. The procedure:
Oxidation of LDL In Vitro Plasma was obtained from the blood of healthy male and female volunteers and was frozen. […] Tubes were then centrifuged at 400 000 g at 15° C. for 2 hours. The top fraction (chylomicrons+VLDL) was removed. […] After centrifugation at 400 000 g at 15° C. for 2 hours, the LDL fraction floating on the top was collected. […] The fractions were supplemented with ethanolic solutions containing various extracts or with the same volume of pure ethanol (control). Oxidation was initiated by adding freshly-prepared CuSO4 solution (25 μmol/l final concentration) at 37° C. The kinetics of the oxidation of lipoprotein was determined by continuously monitoring the change in absorbance at 234 nm (at 37° C.) on a UV/VIS spectrophotometer, which correlates with the increase in conjugated diene absorbance. […] The time required for the formation of diene is defined as the lag phase. The longer the lag phase the better the protection of LDL against oxidation. […] Concentration-response curves for the LDL oxidation assay were plotted separately for each of the tocol preparations, and for the water-soluble antioxidant preparations (see FIGS. 1 to 5). In each experiment, the tocotrienol content of the tocol preparations (TRF) was standardised to 0.05 or 0.1 μg/ml.

As for `CC(=O)N[C@@H](CS)C(=O)O` [N-acetylcysteine], the “synergistic antioxidant properties in combination with TRF or purified δ-tocol” value is “same lack of synergy”.
On to `O=C1O[C@H]([C@@H](O)CO)C(O)=C1O` [ascorbic acid], for which the “synergistic antioxidant properties in combination with TRF or purified δ-tocol” value was “not to have synergistic antioxidant properties”.
Still for that read-out and setting: for `O=C(O)CCCCC1CCSS1` (stereo not drawn) [α-lipoic acid] the value was “same lack of synergy”.
Regarding `Cc1cc(O)cc2c1O[C@](C)(CCC[C@H](C)CCC[C@H](C)CCCC(C)C)CC2` [δ-tocopherol], the “synergistic effect with polyphenols in in vitro LDL oxidation studies” value was “remarkable synergistic effects”.
For the compound `CC(C)=CCC/C(C)=C/CC/C(C)=C/CC[C@]1(C)CCc2cc(O)cc(C)c2O1` [δ-tocotrienol], the “relative performance of δ-tocotrienol vs δ-tocopherol in in vitro LDL oxidation studies” value is “performs marginally better” and the “synergistic effect with polyphenols in in vitro LDL oxidation studies” value is “remarkable synergistic effects”.

These data come from US7452549B2, “Synergistic antioxidant combination of delta tocols and polyphenols” (Nestec S.A., priority 2001, dated 2008).
